Experimental findings from patent US20070021303A1, “Safening method” (priority 2004, published 2007) are described below.

Data set [1] deals with onion. The data set can be described thus: Benoxacor safening bromoxynil damage in onion (seed treatment). In kind it is in vivo, Allium cepa. Conditions: variety Diamante; safener 0 g a.i./kg seed; bromoxynil-octanoate (Buctril) 25 g a.i./ha 10 days after seeding. Here is the method: (§1) Onion (Allium cepa var. Brioso) seeds were encrusted in a commercial seed coating machine. Approximately 1 ml of binder was added. Subsequently, a small amount of encrustment powder (X % Naphthalic Anhydride+[100−X]% inert filler material) was added. Binder was added again and this procedure was repeated until all encrustment powder was stuck to the seeds. Seeds were dried subsequently.
The differently-treated seeds were sown in trays. After 9 days, the seedlings were sprayed with 1.0 g/l ioxynil using an atomizer. A dosage of 3 ml per tray was applied, equalizing 300 g.a.i./hectare. […]
Onion (Allium cepa var. Diamante) were treated with safener, sown, treated with a herbicide and evaluated as described in Example 5 with the difference that the herbicide is bromoxynil-octanoate and the safener is benoxacor.

For data set [2], the system named is onion. The data set can be described thus: Seed treatment of onion with safener (encrustment with rotostat), early post-emergence application of ioxynil. Conditions: var. Brioso. In kind it is in vivo, Allium cepa. The procedure:
as §1
(§2) The differently-treated seeds were sown in trays. After 9 days, the seedlings were sprayed with 1.0 g/l ioxynil using an atomizer. A dosage of 3 ml per tray was applied, equalizing 300 g.a.i./hectare. At 3 days after spraying the number of collapsed seedlings was counted.

The test system of data set [3] is leek. The experiment in a line: Seed treatment of leek with safener (encrustment method), early post-emergence application of ioxynil. In kind it is in vivo, allium porrum. Here is the method:
Leek (allium porrum var. Parton) seeds were put in an erlenmeyer flask with a spinning stirring magnet. A droplet of binder (glue) was added and distributed evenly amongst the seeds. Subsequently, a small amount of encrustment powder (X % mefenpyr-diethyl+[100−X]% inert filler material) was added and mixed through the seeds using the stirring magnet. A droplet of binder was added again and this procedure was repeated until all encrustment powder was stuck to the seeds. Seeds were dried subsequently.
The differently-treated seeds were sown in trays. After 9 days, the seedlings were sprayed with 4.0 g/l ioxynil using an atomizer. A dosage of 3 ml per tray was applied, equalizing 1200 g.a.i./hectare. At 6 days after spraying the number of collapsed seedlings was counted.

Data set [4] has as its system leek. The data set can be described thus: Seed treatment of leek with safener (seed coating with rotostat system), field, early post-emergence application of ioxynil. The data set is classed as in vivo, allium porrum. The procedure:
(§3) Leek (allium porrum var. Shelton) seeds were coated in a commercial seed coating machine. Gradually, binder solution with X g of mefenpyr-diethyl was added. Seeds were dried subsequently.
The differently-treated seeds were sown in the field using commercial sowing equipment. After 25 days, the seedlings were sprayed with a standard formulation of ioxynil (®Totril) at an application rate of 112 g a.i./ha ioxynil. At 15 days after spraying the number of collapsed seedlings was counted.

Data set [5] has as its system leek. The data set can be described thus: Mefenpyr safening Prometryn damage in leek (seed treatment). In kind it is in vivo, allium porrum. Conditions: prometryn (Gesagard) 750 g a.i./ha 10 days after seeding. Here is the method:
as §3
The differently-treated seeds were sown in the field using commercial sowing equipment. […]
Leek seeds (allium porrum, var. Shelton or Parton) were treated with safener, sown, treated with a herbicide and evaluated as described in Example 6 with the difference that the herbicide is prometryn.

Data set [6] concerns onion. The data set can be described thus: Mefenpyr safening oxyfluorfen damage in onion (seed treatment). The data set is classed as in vivo, Allium cepa. Conditions: variety Diamante, oxyfluorfen (Goal) 7.5 g a.i./ha 9 days after seeding. The procedure:
as §1, §2
Onion (Allium cepa var. Diamante) were treated with safener, sown, treated with a herbicide and evaluated as described in Example 5 with the difference that the herbicide is oxyfluorfen and the safener is mefenpyr-diethyl.

For data set [7], the system named is leek. The experiment in a line: Post-emergence application of herbicide and safener by the tank mix method, leek. The data set is classed as in vivo. The text has this:
Seeds of leek plants were sown in sandy loam soil in round plastic pots of a diameter of 7 cm and covered with a layer of sandy loam of a thickness of about 0.2 cm. The pots were placed in a greenhouse under favorable growth conditions for until the plants had reached the 2-leaves growth stage. Then, a herbicide or—in a parallel experiment—a tank-mix of the herbicide and a safener (using same basic formulation in each case) was applied to the green parts of the plants and the uncovered part of the soil surface with a spray bar using a water application rate of 300 liters per hectare.
(§4) The pots were placed in a greenhouse under favorable growth conditions. Visual scoring of the herbicidal action was carried out 21 or 40 days after treatment with the herbicide or the tank-mix, respectively. Evaluation was carried out on a percentage basis by comparison with untreated control plants (0%=no noticeable effect compared with the untreated plant, 100%=treated plant dies).

The test system of data set [8] is onion. The data set can be described thus: Post-emergence application of herbicide and safener by the tank mix method, onion. The data set is classed as in vivo.
Source text: Seeds of onion plants were sown in sandy loam soil in round plastic pots of a diameter of 7 cm and covered with a layer of sandy loam of a thickness of about 0.2 cm. The pots were placed in a greenhouse under favorable growth conditions for until the plants had reached the 2-leaves growth stage. Then, a herbicide or—in a parallel experiment—a tank-mix of the herbicide and a safener (using same basic formulation in each case) was applied to the green parts of the plants and the uncovered part of the soil surface with a spray bar using a water application rate of 300 liters per hectare.
as §4

Data set [9] deals with leek. The data set can be described thus: Fluxofenim safening ioxynil damage in leek (seed treatment). The data set is classed as in vivo, allium porrum.
Data set [10] deals with leek. The data set can be described thus: Oxabetrinil safening ioxynil damage in leek (seed treatment). The data set is classed as in vivo, allium porrum.

Take `CCCCCCCC(=O)Oc1c(Br)cc(C#N)cc1Br` [H7, bromoxynil-octanoate]: in the data set with onion [1], the “Damage to seedling (% collapsed) at 5 DAT” value is 19%.

As for `O=C1OC(=O)c2cccc3cccc1c23` [naphthalic anhydride, 1,8-naphthalenedicarboxylic anhydride], in the data set with onion [2] (naphthalic anhydride seed treatment, then ioxynil 300 g a.i./ha, after 3 days), the “damage (collapsed seedlings) versus control-treated seedlings” value is “significantly less damage”.

Regarding `CCOC(=O)C1=NN(c2ccc(Cl)cc2Cl)C(C)(C(=O)OCC)C1` (centres unmarked) [mefenpyr-diethyl, ethyl 1-(2,4-dichlorophenyl)-5-(ethoxycarbonyl)-5-methyl-2-pyrazoline-3-carboxylate], the “damage (collapsed seedlings) versus control-treated seedlings” value with leek [3] (var. Parton, mefenpyr seed treatment, then ioxynil 1200 g a.i./ha, 6 days after application) was “significantly less damage”. Besides, in the data set on leek [4] (var. Shelton, field, ST3 = seed treatment 2.0 g a.i./kg mefenpyr-diethyl, ioxynil 112 g a.i./ha 25 days after seeding, 15 DAT), the “Damage to leek (in %) 15 DAT” value is on record as “significantly reduced the amount of damage”. Besides, the “Damage to seedling (% collapsed) at 6 DAT” value with leek [5] (variety Parton, safener mefenpyr-diethyl 1 g a.i./kg seed) is reported as 3%; in the data set on leek [5] (variety Parton, safener mefenpyr-diethyl 2 g a.i./kg seed), 1%; in the data set on leek [5] (variety Shelton, safener mefenpyr-diethyl 1 g a.i./kg seed) it was 2%; in the data set with leek [5] (variety Shelton, safener mefenpyr-diethyl 2 g a.i./kg seed), 1%. The “Damage to seedling (% collapsed) at 5 DAT” value in the data set on onion [6] (safener mefenpyr-diethyl 2 g a.i./kg seed) was 64%; with onion [6] (safener mefenpyr-diethyl 4 g a.i./kg seed), 49%; with onion [6] (safener mefenpyr-diethyl 8 g a.i./kg seed), 39%.

As for `CON(C)C(=O)Nc1ccc(Cl)c(Cl)c1` [H2, linuron], the “Damage to leek (in %) variety Harston” value with leek [7] (variety Harston, 250 g a.i./ha, scoring 40 DAT) is 20%. Further, the “Damage to leek (in %) variety Kenton” value in the data set with leek [7] (variety Kenton, 250 g a.i./ha, scoring 40 DAT) was determined as 20%. In addition, the “Damage to onion (in %) variety Blanco Duro” value in the data set with onion [8] (variety Blanco Duro, 250 g a.i./ha, scoring 40 DAT) was found to be 100%. In addition, the “Damage to onion (in %) variety Brioso” value in the data set on onion [8] (variety Brioso, 250 g a.i./ha, scoring 40 DAT) was determined as 30%.

As to `COc1cc(OC)nc(NC(=O)NS(=O)(=O)c2cc(NC=O)ccc2C(=O)N(C)C)n1` [H4, N,N-dimethyl-2-[3-(4,6-dimethoxypyrimidin-2-yl)ureidosulfonyl]-4-formylaminobenzamide], in the data set on leek [7] (in vivo), the “Damage to leek (in %) variety Harston” value was 50% and the “Damage to leek (in %) variety Kenton” value came to 50%. Besides, in the data set with onion [8] (in vivo), the “Damage to onion (in %) variety Blanco Duro” value came out at 10% and the “Damage to onion (in %) variety Brioso” value was determined as 30%.

Regarding `FC(F)(F)C(=NOCC1OCCO1)c1ccc(Cl)cc1` [fluxofenim, 1-(4-chlorophenyl)-2,2,2-trifluoro-1-ethanone O-(1,3-dioxolan-2-ylmethyl)oxime], the “Damage to seedling (% collapsed) at 5 DAT” value in the data set on leek [9] (variety Shelton, safener fluxofenim 1 g a.i./kg seed, ioxynil (Totril) 112 g a.i./ha 10 days after seeding) was determined as 10%; in the data set on leek [9] (variety Shelton, safener fluxofenim 2 g a.i./kg seed, ioxynil (Totril) 112 g a.i./ha 10 days after seeding), 6%.

Consider `CCOc1cc(Oc2ccc(C(F)(F)F)cc2Cl)ccc1[N+](=O)[O-]` [H6, oxyfluorfen], for which, in the data set on onion [6] (safener 0 g a.i./kg seed), the “Damage to seedling (% collapsed) at 5 DAT” value is recorded as 83%.

For `COC(=O)c1ccc(CNS(C)(=O)=O)cc1S(=O)(=O)NC(=O)Nc1nc(OC)cc(OC)n1` [H3, methyl 2-[3-(4,6-dimethoxypyrimidin-2-yl)ureidosulfonyl]-4-methanesulfonylaminomethylbenzoate], the “Damage to leek (in %) variety Harston” value with leek [7] (variety Harston, 50 g a.i./ha, scoring 40 DAT) is 50%. In addition, the “Damage to leek (in %) variety Kenton” value with leek [7] (variety Kenton, 50 g a.i./ha, scoring 40 DAT) is given as 45%. In addition, in the data set on onion [8] (in vivo), the “Damage to onion (in %) variety Blanco Duro” value is 70% and the “Damage to onion (in %) variety Brioso” value was found to be 50%.

For the molecule `N#C/C(=N\OCC1OCCO1)c1ccccc1` [oxabetrinil, (Z)-1,3-dioxolan-2-ylmethoxyimino(phenyl)-acetonitrile], the “Damage to seedling (% collapsed) at 7 DAT” value is recorded as 25% in the data set on leek [10] (variety Shelton, safener oxabetrinil 1 g a.i./kg seed, ioxynil (Totril) 112 g a.i./ha 10 days after seeding); 27% with leek [10] (variety Shelton, safener oxabetrinil 2 g a.i./kg seed, ioxynil (Totril) 112 g a.i./ha 10 days after seeding); 13% in the data set on leek [10] (variety Shelton, safener oxabetrinil 4 g a.i./kg seed, ioxynil (Totril) 112 g a.i./ha 10 days after seeding).

As to `N#Cc1cc(I)c(O)c(I)c1` [H1, 4-hydroxy-3,5-di-iodobenzonitrile], in the data set with leek [7] (in vivo), the “Damage to leek (in %) variety Harston” value is on record as 40% and the “Damage to leek (in %) variety Kenton” value amounted to 55%. Moreover, in the data set with onion [8] (in vivo), the “Damage to onion (in %) variety Blanco Duro” value was 55% and the “Damage to onion (in %) variety Brioso” value came out at 45%. Moreover, in the data set with leek [3] (in vivo), the “Damage to leek (in %) 6 DAT” value is 52%. Besides, the “Damage to onion (in %) 3 DAT” value in the data set with onion [2] (no safener, ioxynil 300 g a.i./ha sprayed 9 days after seeding, collapsed seedlings 3 DAT) worked out at 57%. Also, the “Damage to leek (in %) 15 DAT” value in the data set on leek [4] (in vivo) is 6%. The “Damage to seedling (% collapsed) at 5 DAT” value in the data set on leek [9] (in vivo) came to 16%. Besides, the “Damage to seedling (% collapsed) at 7 DAT” value in the data set on leek [10] (in vivo) was determined as 45%.
